Literature values in patent publication US20240027453A1, “METHOD FOR DETECTION AND QUANTITATIVE MONITORING OF INFECTIONS WITH HERPESVIRUSES” (The Trustees of Princeton University, priority 2020, published 2024).

Columns and labels:
HCMV [1] = conditions: cited from earlier work
HCMV [2] = conditions: in MRC5 cells; cited from earlier work

For `Nc1c(S(=O)(=O)c2ccccc2)c2nc3ccccc3nc2n1-c1ccc(F)cc1` [CAY10602], the “decrease in HCMV titers” value (HCMV [1]; […] CAY10602, 50 μM trans-Resveratrol) is listed as ~50% and the HCMV titers (HCMV [1]) is listed as “decreased”.
In the case of `Nc1ccn(C[C@@H](CO)OCP(=O)(O)O)c(=O)n1` [CDV, cidofovir], the IC50 (HCMV [2]) is listed as ~500 nM.
